In EP4810052A2, “HCRHR2 SELECTIVE POLYPEPTIDES” (Gubra A/S, priority 2023, dated 2026):
Where two headings read alike, the source gives them in different places. Starred links: 1 amine or outer side, 2 acyl side, 3 side chain; linkers in the order of their positions; H or OH if unused. Non-standard residues stand in square brackets, D forms with d. Residues, ends and D or L forms follow the SMILES beside them. Groups on a side chain read outwards from the residue. *: point of attachment. C20 diacid = O=C(O)CCCCCCCCCCCCCCCCCCC(=O)*; γGlu = O=C(O)[C@H](CCC(=O)[*:2])N[*:1]; NMeI = CC[C@H](C)[C@H](NC)C(=O)O; Nle = CCCC[C@H](N)C(=O)O; AEEA = NCCOCCOCC(=O)O; Aib = CC(C)(N)C(=O)O

What was measured:
hCRHR1 = target: T1, hCRHR1 (Homo sapiens, UniProt P34998); assay: HTRF cAMP assay, determination of hCRHR1 potency (peptide libraries 5 conc., purified peptides 11 conc.); format: cell-based
T1 sequence (P34998 24-415): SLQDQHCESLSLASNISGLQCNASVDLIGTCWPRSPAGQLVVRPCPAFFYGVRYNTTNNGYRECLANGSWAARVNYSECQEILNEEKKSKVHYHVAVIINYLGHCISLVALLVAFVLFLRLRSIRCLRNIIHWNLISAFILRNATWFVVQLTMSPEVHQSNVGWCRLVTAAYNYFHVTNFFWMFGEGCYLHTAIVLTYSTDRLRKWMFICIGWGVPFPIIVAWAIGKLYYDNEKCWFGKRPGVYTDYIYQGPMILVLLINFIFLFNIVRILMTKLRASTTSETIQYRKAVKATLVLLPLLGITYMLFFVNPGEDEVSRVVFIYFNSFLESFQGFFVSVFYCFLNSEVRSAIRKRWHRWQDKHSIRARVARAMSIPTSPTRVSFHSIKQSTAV
In short: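 Cellular cAMP was read by time-resolved FRET between d2-labelled cAMP and cryptate anti-cAMP antibody. The cells were freshly thawed suspension CHO-K1 cells stably expressing human CRHR1.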

hCRHR2 = target: T2, hCRHR2 (Homo sapiens, UniProt Q13324); assay: HTRF cAMP assay, determination of hCRHR2 potency (peptide libraries 5 conc., purified peptides 11 conc.); format: cell-based
T2 sequence (Q13324 1-411): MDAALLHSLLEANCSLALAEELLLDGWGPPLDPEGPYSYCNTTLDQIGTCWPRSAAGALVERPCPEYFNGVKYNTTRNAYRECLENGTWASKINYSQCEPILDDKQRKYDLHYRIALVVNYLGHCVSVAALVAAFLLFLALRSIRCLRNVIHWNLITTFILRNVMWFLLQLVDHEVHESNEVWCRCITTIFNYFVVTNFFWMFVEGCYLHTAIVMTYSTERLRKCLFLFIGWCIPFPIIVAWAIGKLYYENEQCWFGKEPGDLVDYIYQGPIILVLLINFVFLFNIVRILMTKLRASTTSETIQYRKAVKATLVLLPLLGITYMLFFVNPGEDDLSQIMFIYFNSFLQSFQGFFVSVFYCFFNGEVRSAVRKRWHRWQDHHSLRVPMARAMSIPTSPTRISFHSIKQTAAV
In short: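 EC50 derived by variable-slope sigmoid regression of FRET-based cAMP data; cellular cAMP displaced d2-labelled tracer from cryptate anti-cAMP antibody. Stable human CRHR2 CHO-K1 suspension cells, revived from frozen stocks just before the run.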

[1] = library peptides, matched molecular pairs L vs Nle in position X^38, read-out: Potency hCRHR1 pEC50 (converted)
[2] = library peptides, matched molecular pairs L vs Nle in position X^38, read-out: Potency hCRHR2 pEC50 (converted)
[3] = Table 3, matched molecular pairs X^38 L vs Nle, peptide library of Example 4, read-out: hCRHR1 pEC50 (converted)
[4] = Table 3, matched molecular pairs X^38 L vs Nle, peptide library of Example 4, read-out: hCRHR2 pEC50 (converted)

| EC50 (hCRHR1; [1]) | EC50 (hCRHR2; [2]) | EC50 (hCRHR1; [3]) | EC50 (hCRHR2; [4]) | SMILES | other results |
| --- | --- | --- | --- | --- | --- |
| 398000 nM | 0.398 nM |  |  | CCCC[C@H](NC(=O)[C@@H](NC(=O)[C@H](CCC(=O)O)NC(=O)[C@H](C)NC(=O)[C@H](CC(N)=O)NC(=O)[C@@H](NC(=O)[C@H](CCCCNC(=O)COCCOCCNC(=O)COCCOCCNC(=O)CC[C@H](NC(=O)CC[C@H](NC(=O)CCCCCCCCCCCCCCCCCCC(=O)O)C(=O)O)C(=O)O)NC(=O)[C@H](C)NC(=O)[C@H](CCC(N)=O)NC(=O)[C@H](CCC(=O)O)NC(=O)[C@H](CCCNC(=N)N)NC(=O)[C@H](C)NC(=O)[C@H](C)NC(=O)[C@H](CCCNC(=N)N)NC(=O)[C@H](C)NC(=O)[C@H](CCCNC(=N)N)NC(=O)[C@H](C)NC(=O)[C@H](CCC(N)=O)NC(=O)[C@H](CO)NC(=O)[C@H](CC(C)C)NC(=O)[C@H](CC(C)C)NC(=O)[C@@H](NC(=O)[C@H](CCC(N)=O)NC(=O)[C@H](CC(C)C)NC(=O)[C@H](CC(C)C)NC(=O)CNC(=O)[C@@H](NC(=O)[C@@H]1CCCN1C(=O)[C@@H](NC(=O)[C@H](CC(=O)O)NC(=O)[C@H](CC(C)C)NC(=O)[C@H](CO)NC(=O)[C@H](CC(C)C)NC(=O)[C@@H](NC(=O)[C@@H](N)[C@@H](C)CC)C(C)C)C(C)C)[C@@H](C)CC)[C@@H](C)CC)[C@@H](C)O)[C@@H](C)CC)C(=O)N[C@@H](C)C(=O)N[C@@H](CCC(=O)O)C(=O)N[C@H](C(N)=O)[C@@H](C)CC [compound 89] (H-IVLSLDVPIGLLQILLSQARARAAREQAK([AEEA-AEEA-γGlu-γGlu-C20 diacid])TNAEI[Nle]AEI-NH2) | EC50 (hCRHR1; Table 5, purified peptides, read-out: hCRHR1 EC50): > 5000 nM; Selectivity ratio (hCRHR1/ hCRHR2) (hCRHR2; Table 5): >9091; EC50 (hCRHR2; Table 5, purified peptides, read-out: hCRHR2 EC50): 0.55 nM |
|  |  | 63100 nM | 0.316 nM | CC[C@H](C)[C@H](N)C(=O)N[C@H](C(=O)N[C@@H](CC(C)C)C(=O)N[C@@H](CO)C(=O)N[C@@H](CC(C)C)C(=O)N[C@@H](CC(=O)O)C(=O)N[C@H](C(=O)N1CCC[C@H]1C(=O)N[C@H](C(=O)NCC(=O)N[C@@H](CC(C)C)C(=O)N[C@@H](CC(C)C)C(=O)N[C@@H](CCC(N)=O)C(=O)N[C@H](C(=O)N[C@@H](CC(C)C)C(=O)N[C@@H](CC(C)C)C(=O)N[C@@H](CCC(=O)O)C(=O)N[C@@H](CCC(N)=O)C(=O)N[C@@H](C)C(=O)N[C@@H](CCCNC(=N)N)C(=O)N[C@@H](C)C(=O)N[C@@H](CCCNC(=N)N)C(=O)N[C@@H](C)C(=O)N[C@@H](C)C(=O)N[C@@H](CCCNC(=N)N)C(=O)N[C@@H](CCC(N)=O)C(=O)N[C@@H](CCC(N)=O)C(=O)N[C@@H](C)C(=O)N[C@@H](CCCCNC(=O)COCCOCCNC(=O)COCCOCCNC(=O)CC[C@H](NC(=O)CC[C@H](NC(=O)CCCCCCCCCCCCCCCCCCC(=O)O)C(=O)O)C(=O)O)C(=O)N[C@H](C(=O)N[C@@H](CC(N)=O)C(=O)N[C@@H](C)C(=O)N[C@@H](CCC(=O)O)C(=O)N[C@H](C(=O)N[C@@H](CC(C)C)C(=O)N[C@@H](C)C(=O)N[C@@H](CCC(=O)O)C(=O)N[C@H](C(N)=O)[C@@H](C)CC)[C@@H](C)CC)[C@@H](C)O)[C@@H](C)CC)[C@@H](C)CC)C(C)C)C(C)C [SEQ ID NO: 27] (H-IVLSLDVPIGLLQILLEQARARAARQQAK([AEEA-AEEA-γGlu-γGlu-C20 diacid])TNAEILAEI-NH2) |  |

Continued, compound first:

| SMILES | EC50 (hCRHR1; [1]) | EC50 (hCRHR2; [2]) | EC50 (hCRHR1; [3]) | EC50 (hCRHR2; [4]) | other results |
| --- | --- | --- | --- | --- | --- |
| CCCC[C@H](NC(=O)[C@@H](NC(=O)[C@H](CCC(=O)O)NC(=O)[C@H](C)NC(=O)[C@H](CC(N)=O)NC(=O)C(C)(C)NC(=O)[C@H](CCCCNC(=O)COCCOCCNC(=O)COCCOCCNC(=O)CC[C@H](NC(=O)CC[C@H](NC(=O)CCCCCCCCCCCCCCCCCCC(=O)O)C(=O)O)C(=O)O)NC(=O)[C@H](C)NC(=O)[C@H](CCC(N)=O)NC(=O)[C@H](CCC(=O)O)NC(=O)[C@H](CCCNC(=N)N)NC(=O)[C@H](C)NC(=O)[C@H](C)NC(=O)[C@H](CCCNC(=N)N)NC(=O)[C@H](C)NC(=O)[C@H](CCCNC(=N)N)NC(=O)[C@H](C)NC(=O)[C@H](CCC(N)=O)NC(=O)[C@H](C)NC(=O)[C@H](CC(C)C)NC(=O)[C@H](CC(C)C)NC(=O)[C@@H](NC(=O)[C@H](CCC(N)=O)NC(=O)[C@H](CC(C)C)NC(=O)[C@H](CC(C)C)NC(=O)CNC(=O)[C@@H](NC(=O)[C@@H]1CCCN1C(=O)[C@@H](NC(=O)[C@H](CC(=O)O)NC(=O)[C@H](CC(C)C)NC(=O)[C@H](CO)NC(=O)[C@H](CC(C)C)NC(=O)[C@@H](NC(=O)[C@@H](NC)[C@@H](C)CC)C(C)C)C(C)C)[C@@H](C)CC)[C@@H](C)CC)[C@@H](C)CC)C(=O)N[C@@H](C)C(=O)N[C@@H](CCC(=O)O)C(=O)N[C@H](C(N)=O)C(C)C [compound 119] (H-[NMeI]VLSLDVPIGLLQILLAQARARAAREQAK([AEEA-AEEA-γGlu-γGlu-C20 diacid])[Aib]NAEI[Nle]AEV-NH2) |  |  |  |  | EC50 (hCRHR1; Table 4, library peptides having X^38 = Nle, read-out: hCRHR1 pEC50 (converted)): 1000 nM; EC50 (hCRHR2; Table 4, library peptides having X^38 = Nle, read-out: hCRHR2 pEC50 (converted)): 0.02 nM |
| CCCC[C@H](NC(=O)[C@@H](NC(=O)[C@H](CCC(=O)O)NC(=O)[C@H](C)NC(=O)[C@H](CC(N)=O)NC(=O)[C@@H](NC(=O)[C@H](CCCCNC(=O)COCCOCCNC(=O)COCCOCCNC(=O)CC[C@H](NC(=O)CC[C@H](NC(=O)CCCCCCCCCCCCCCCCCCC(=O)O)C(=O)O)C(=O)O)NC(=O)[C@H](C)NC(=O)[C@H](CCC(N)=O)NC(=O)[C@H](CCC(=O)O)NC(=O)[C@H](CCCNC(=N)N)NC(=O)[C@H](C)NC(=O)[C@H](CO)NC(=O)[C@H](CCCNC(=N)N)NC(=O)[C@H](C)NC(=O)[C@H](CCCNC(=N)N)NC(=O)[C@H](C)NC(=O)[C@H](CCC(N)=O)NC(=O)[C@H](CCC(=O)O)NC(=O)[C@H](CC(C)C)NC(=O)[C@H](CC(C)C)NC(=O)[C@@H](NC(=O)[C@H](CCC(N)=O)NC(=O)[C@H](CC(C)C)NC(=O)[C@H](CC(C)C)NC(=O)CNC(=O)[C@@H](NC(=O)[C@@H]1CCCN1C(=O)[C@@H](NC(=O)[C@H](CC(=O)O)NC(=O)[C@H](CC(C)C)NC(=O)[C@H](CO)NC(=O)[C@H](CC(C)C)NC(=O)[C@@H](NC(=O)[C@@H](N)[C@@H](C)CC)C(C)C)C(C)C)[C@@H](C)CC)[C@@H](C)CC)[C@@H](C)O)[C@@H](C)CC)C(=O)N[C@@H](C)C(=O)N[C@@H](CCC(=O)O)C(=O)N[C@H](C(N)=O)C(C)C [compound 61] (H-IVLSLDVPIGLLQILLEQARARSAREQAK([AEEA-AEEA-γGlu-γGlu-C20 diacid])TNAEI[Nle]AEV-NH2) | 1260 nM | 0.1 nM |  |  |  |
| CC[C@H](C)[C@H](N)C(=O)N[C@H](C(=O)N[C@@H](CC(C)C)C(=O)N[C@@H](CO)C(=O)N[C@@H](CC(C)C)C(=O)N[C@@H](CC(=O)O)C(=O)N[C@H](C(=O)N1CCC[C@H]1C(=O)N[C@H](C(=O)NCC(=O)N[C@@H](CC(C)C)C(=O)N[C@@H](CC(C)C)C(=O)N[C@@H](CCC(N)=O)C(=O)N[C@H](C(=O)N[C@@H](CC(C)C)C(=O)N[C@@H](CC(C)C)C(=O)N[C@@H](CCC(=O)O)C(=O)N[C@@H](CCC(N)=O)C(=O)N[C@@H](C)C(=O)N[C@@H](CCCNC(=N)N)C(=O)N[C@@H](C)C(=O)N[C@@H](CCCNC(=N)N)C(=O)N[C@@H](C)C(=O)N[C@@H](CCC(N)=O)C(=O)N[C@@H](CCCNC(=N)N)C(=O)N[C@@H](CCC(N)=O)C(=O)N[C@@H](CCC(N)=O)C(=O)N[C@@H](C)C(=O)N[C@@H](CCCCNC(=O)COCCOCCNC(=O)COCCOCCNC(=O)CC[C@H](NC(=O)CC[C@H](NC(=O)CCCCCCCCCCCCCCCCCCC(=O)O)C(=O)O)C(=O)O)C(=O)N[C@H](C(=O)N[C@@H](CC(N)=O)C(=O)N[C@@H](C)C(=O)N[C@@H](CCC(=O)O)C(=O)N[C@H](C(=O)N[C@@H](CC(C)C)C(=O)N[C@@H](C)C(=O)N[C@@H](CCC(=O)O)C(=O)N[C@H](C(N)=O)C(C)C)[C@@H](C)CC)[C@@H](C)O)[C@@H](C)CC)[C@@H](C)CC)C(C)C)C(C)C [SEQ ID NO: 46] (H-IVLSLDVPIGLLQILLEQARARAQRQQAK([AEEA-AEEA-γGlu-γGlu-C20 diacid])TNAEILAEV-NH2) |  |  | 2510 nM | 0.316 nM |  |
